“And” between values parts separate entries of the source, which are not always exact repeats. Equal entries are not always repeated. The source made the active and inactive calls. The rule behind the calls is not given here.
System: rodent lifetime carcinogenesis bioassay, tumor incidence TD50
Experiment: carcinogenic potency in animals, long-term in vivo studies, CPDB compilation (AID 1745844)
[1] = mouse, strain ICI, males, by gavage, site: liver, lesion: several types, types named in the paper, dosed 80 weeks, study length 98 weeks
[2] = mouse, strain ICI, males, by gavage, site: lung, lesion: several types, types named in the paper, dosed 80 weeks, study length 98 weeks

ClC(Cl)Cl
TD50 (dog, strain Beagle, females, in feed, site: any site (literature study), lesion: several types, types named in the paper, dosed 376 weeks, study length 397 weeks): 10 mg/kg/day (inactive)
carcinogen call (dog, strain Beagle, females, in feed, site: liver, lesion: one or several types, types not named, dosed 376 weeks, study length 397 weeks): negative (inactive)
TD50 (dog, strain Beagle, males, in feed, site: any site (literature study), lesion: several types, types named in the paper, dosed 376 weeks, study length 397 weeks): 13.3 mg/kg/day (inactive)
carcinogen call (dog, strain Beagle, males, in feed, site: liver, lesion: one or several types, types not named, dosed 376 weeks, study length 397 weeks): negative (inactive)
TD50 (mouse, strain B6C3F1, females, by gavage, site: any site (literature study), lesion: several types, types named in the paper, dosed 78 weeks, study length 92 weeks): 54.1 mg/kg/day
TD50 (mouse, strain B6C3F1, females, by gavage, site: liver, lesion: hepatocellular adenoma + hepatocellular carcinoma + neoplastic nodule, dosed 78 weeks, study length 92 weeks): 48 mg/kg/day
TD50 (mouse, strain B6C3F1, females, by gavage, site: liver, lesion: hepatocellular carcinoma, dosed 78 weeks, study length 92 weeks): 48 mg/kg/day
carcinogen call (mouse, strain B6C3F1, females, in drinking water, site: any site (literature study), lesion: several types, types named in the paper, dosed 104 weeks, study length 104 weeks): negative (inactive)
carcinogen call (mouse, strain B6C3F1, females, in drinking water, site: liver, lesion: hepatocellular adenoma, dosed 104 weeks, study length 104 weeks): negative (inactive)
TD50 (mouse, strain B6C3F1, females, in drinking water, site: liver, lesion: hepatocellular carcinoma, dosed 104 weeks, study length 104 weeks): 20200 mg/kg/day (inactive)
carcinogen call (mouse, strain B6C3F1, females, in drinking water, site: liver, lesion: several types, types named in the paper, dosed 104 weeks, study length 104 weeks): negative (inactive)
TD50 (mouse, strain B6C3F1, males, by gavage, site: any site (literature study), lesion: several types, types named in the paper, dosed 78 weeks, study length 92 weeks): 71.1 mg/kg/day
TD50 (mouse, strain B6C3F1, males, by gavage, site: liver, lesion: hepatocellular adenoma + hepatocellular carcinoma + neoplastic nodule, dosed 78 weeks, study length 92 weeks): 56.2 mg/kg/day
TD50 (mouse, strain B6C3F1, males, by gavage, site: liver, lesion: hepatocellular carcinoma, dosed 78 weeks, study length 92 weeks): 56.2 mg/kg/day
carcinogen call (mouse, strain C57BL, males, by gavage, site: any site (literature study), lesion: several types, types named in the paper, dosed 80 weeks, study length 104 weeks): negative (inactive)
carcinogen call (mouse, strain C57BL, males, by gavage, site: liver, lesion: one or several types, types not named, dosed 80 weeks, study length 104 weeks): negative (inactive)
TD50 (mouse, strain C57BL, males, by gavage, site: lung, lesion: several types, types named in the paper, dosed 80 weeks, study length 104 weeks): 728 mg/kg/day (inactive)
carcinogen call (mouse, strain CBA, males, by gavage, site: any site (literature study), lesion: several types, types named in the paper, dosed 80 weeks, study length 104 weeks): negative (inactive)
carcinogen call (mouse, strain CBA, males, by gavage, site: liver, lesion: several types, types named in the paper, dosed 80 weeks, study length 104 weeks): negative (inactive)
carcinogen call (mouse, strain CBA, males, by gavage, site: lung, lesion: several types, types named in the paper, dosed 80 weeks, study length 104 weeks): negative (inactive)
TD50 (mouse, strain CF-1, males, by gavage, site: any site (literature study), lesion: several types, types named in the paper, dosed 80 weeks, study length 93 weeks): 140 mg/kg/day (inactive)
TD50 (mouse, strain CF-1, males, by gavage, site: liver, lesion: one or several types, types not named, dosed 80 weeks, study length 93 weeks): 1430 mg/kg/day (inactive)
TD50 (mouse, strain CF-1, males, by gavage, site: lung, lesion: several types, types named in the paper, dosed 80 weeks, study length 93 weeks): 376 mg/kg/day (inactive)
TD50 (mouse, strain CFLP, males, by gavage, site: kidney, lesion: several types, types named in the paper, dosed 80 weeks, study length 104 weeks): 153 mg/kg/day
carcinogen call (mouse, strain CFLP, males, by gavage, site: liver, lesion: one or several types, types not named, dosed 80 weeks, study length 104 weeks): negative (inactive)
TD50 (mouse, strain CFLP, males, by gavage, site: lung, lesion: one or several types, types not named, dosed 80 weeks, study length 104 weeks): 4350 mg/kg/day (inactive)
TD50 (mouse, strain Crj:BDF1, females, inhaled, site: liver, lesion: hepatocellular carcinoma, dosed 104 weeks, study length 104 weeks): 2670 mg/kg/day
TD50 (mouse, strain Crj:BDF1, females, inhaled, site: liver, lesion: several types, types named in the paper, dosed 104 weeks, study length 104 weeks): 909 mg/kg/day
TD50 (mouse, strain Crj:BDF1, females, inhaled, site: pituitary gland, lesion: adenoma, dosed 104 weeks, study length 104 weeks): 2070 mg/kg/day
TD50 (mouse, strain Crj:BDF1, males, inhaled, site: kidney, lesion: renal-cell adenoma, dosed 104 weeks, study length 104 weeks): 1250 mg/kg/day
TD50 (mouse, strain Crj:BDF1, males, inhaled, site: kidney, lesion: renal-cell carcinoma, dosed 104 weeks, study length 104 weeks): 287 mg/kg/day
TD50 (mouse, strain Crj:BDF1, males, inhaled, site: kidney, lesion: several types, types named in the paper, dosed 104 weeks, study length 104 weeks): 226 mg/kg/day
TD50 (mouse, strain Crj:BDF1, males, inhaled, site: liver, lesion: several types, types named in the paper, dosed 104 weeks, study length 104 weeks): 402 mg/kg/day
TD50 (mouse, strain Crj:BDF1, males, inhaled, site: lung, lesion: alveolar/bronchiolar carcinoma, dosed 104 weeks, study length 104 weeks): 3530 mg/kg/day
carcinogen call (mouse, strain ICI, females, by gavage, site: any site (literature study), lesion: several types, types named in the paper, dosed 80 weeks, study length 96 weeks): negative (inactive)
carcinogen call (mouse, strain ICI, females, by gavage, site: liver, lesion: one or several types, types not named, dosed 80 weeks, study length 96 weeks): negative (inactive)
TD50 (mouse, strain ICI, females, by gavage, site: lung, lesion: one or several types, types not named, dosed 80 weeks, study length 96 weeks): 316 mg/kg/day (inactive)
TD50 (mouse, strain ICI, males, by gavage, site: any site (literature study), lesion: several types, types named in the paper, dosed 80 weeks, study length 96 weeks): 45.4 mg/kg/day
TD50 (mouse, strain ICI, males, by gavage, site: any site (literature study), lesion: several types, types named in the paper, dosed 80 weeks, study length 98 weeks): 88.5 mg/kg/day
TD50 (mouse, strain ICI, males, by gavage, site: kidney, lesion: several types, types named in the paper, dosed 80 weeks, study length 96 weeks): 139 mg/kg/day
TD50 (mouse, strain ICI, males, by gavage, site: kidney, lesion: several types, types named in the paper, dosed 80 weeks, study length 98 weeks): 278 mg/kg/day and 95.5 mg/kg/day
TD50 (mouse, strain ICI, males, by gavage, site: liver, lesion: one or several types, types not named, dosed 80 weeks, study length 96 weeks): 324 mg/kg/day (inactive)
TD50 [1]: 437 mg/kg/day (inactive)
carcinogen call [1]: negative (inactive)
TD50 (mouse, strain ICI, males, by gavage, site: lung, lesion: one or several types, types not named, dosed 80 weeks, study length 96 weeks): 9830 mg/kg/day (inactive)
TD50 [2]: 336 mg/kg/day (inactive)
carcinogen call [2]: negative (inactive)
TD50 (rat, strain F344/DuCrj, females, inhaled, site: kidney, lesion: renal-cell adenoma, dosed 104 weeks, study length 104 weeks): 1590 mg/kg/day (inactive)
TD50 (rat, strain F344/DuCrj, females, inhaled, site: kidney, lesion: transitional-cell carcinoma, dosed 104 weeks, study length 104 weeks): 1590 mg/kg/day (inactive)
TD50 (rat, strain F344/DuCrj, females, inhaled, site: liver, lesion: hepatocellular adenoma, dosed 104 weeks, study length 104 weeks): 2180 mg/kg/day (inactive)
carcinogen call (rat, strain F344/DuCrj, males, inhaled, site: kidney, lesion: one or several types, types not named, dosed 104 weeks, study length 104 weeks): negative (inactive)
carcinogen call (rat, strain F344/DuCrj, males, inhaled, site: liver, lesion: several types, types named in the paper, dosed 104 weeks, study length 104 weeks): negative (inactive)
TD50 (rat, strain Osborne-Mendel, females, by gavage, site: any site (literature study), lesion: several types, types named in the paper, dosed 78 weeks, study length 110 weeks): 68.2 mg/kg/day
TD50 (rat, strain Osborne-Mendel, females, by gavage, site: liver, lesion: hepatocellular adenoma + hepatocellular carcinoma + neoplastic nodule, dosed 78 weeks, study length 110 weeks): 1130 mg/kg/day
TD50 (rat, strain Osborne-Mendel, females, by gavage, site: thyroid gland, lesion: c-cell adenoma + c-cell carcinoma + follicular-cell adenoma + follicular-cell carcinoma, dosed 78 weeks, study length 110 weeks): 126 mg/kg/day (inactive)
TD50 (rat, strain Osborne-Mendel, males, by gavage, site: any site (literature study), lesion: several types, types named in the paper, dosed 78 weeks, study length 110 weeks): 194 mg/kg/day
TD50 (rat, strain Osborne-Mendel, males, by gavage, site: kidney, lesion: tubular-cell adenoma + tubular-cell adenocarcinoma, dosed 78 weeks, study length 110 weeks): 119 mg/kg/day
TD50 (rat, strain Osborne-Mendel, males, by gavage, site: liver, lesion: hepatocellular adenoma + hepatocellular carcinoma + neoplastic nodule, dosed 78 weeks, study length 110 weeks): 455 mg/kg/day
TD50 (rat, strain Osborne-Mendel, males, in drinking water, site: all sites, lesion: neurofibroma, dosed 104 weeks, study length 104 weeks): 2200 mg/kg/day
TD50 (rat, strain Osborne-Mendel, males, in drinking water, site: all sites, lesion: several types, types named in the paper, dosed 104 weeks, study length 104 weeks): 1360 mg/kg/day
TD50 (rat, strain Osborne-Mendel, males, in drinking water, site: any site (literature study), lesion: several types, types named in the paper, dosed 104 weeks, study length 104 weeks): 1970 mg/kg/day
TD50 (rat, strain Osborne-Mendel, males, in drinking water, site: kidney, lesion: several types, types named in the paper, dosed 104 weeks, study length 104 weeks): 519 mg/kg/day and 606 mg/kg/day
TD50 (rat, strain Osborne-Mendel, males, in drinking water, site: kidney, lesion: tubular-cell adenoma, dosed 104 weeks, study length 104 weeks): 972 mg/kg/day
TD50 (rat, strain Sprague-Dawley, females, by gavage, site: any site (literature study), lesion: malignant tumor, dosed 80 weeks, study length 95 weeks): 276 mg/kg/day (inactive)
TD50 (rat, strain Sprague-Dawley, females, by gavage, site: any site (literature study), lesion: several types, types named in the paper, dosed 80 weeks, study length 95 weeks): 78.3 mg/kg/day (inactive)
TD50 (rat, strain Sprague-Dawley, females, by gavage, site: liver, lesion: cystadenoma, dosed 80 weeks, study length 95 weeks): 1200 mg/kg/day (inactive)
carcinogen call (rat, strain Sprague-Dawley, males, by gavage, site: any site (literature study), lesion: malignant tumor, dosed 80 weeks, study length 95 weeks): negative (inactive)
carcinogen call (rat, strain Sprague-Dawley, males, by gavage, site: any site (literature study), lesion: several types, types named in the paper, dosed 80 weeks, study length 95 weeks): negative (inactive)
carcinogen call (rat, strain Sprague-Dawley, males, by gavage, site: liver, lesion: one or several types, types not named, dosed 80 weeks, study length 95 weeks): negative (inactive)
TD50 (rat, strain Wistar, females, in drinking water, site: liver, lesion: hepatocellular carcinoma, dosed 187 weeks, study length 187 weeks): 10000 mg/kg/day
TD50 (rat, strain Wistar, females, in drinking water, site: liver, lesion: neoplastic nodule, dosed 187 weeks, study length 187 weeks): 883 mg/kg/day
TD50 (rat, strain Wistar, males, in drinking water, site: kidney, lesion: adenocarcinoma, dosed 172 weeks, study length 172 weeks): 5300 mg/kg/day
TD50 (rat, strain Wistar, males, in drinking water, site: kidney, lesion: adenoma, dosed 172 weeks, study length 172 weeks): 5300 mg/kg/day
TD50 (rat, strain Wistar, males, in drinking water, site: liver, lesion: hepatocellular carcinoma, dosed 172 weeks, study length 172 weeks): 5300 mg/kg/day

Reference: PubChem BioAssay AID1745844 (Carcinogenic Potency Database (CPDB), 2022)
